Assay results from patent US20260098030A1, “NEGATIVE ALLOSTERIC MODULATORS OF METABOTROPIC GLUTAMATE RECEPTOR 2” (Vanderbilt University, priority 2022, published 2026).

Each compound was assayed against T1, rat mGlu2 (Rattus norvegicus, UniProt P31421) (assay: mGlu GIRK cell-based thallium flux assay, rat mGlu2). Settings: HEK-293 cells co-expressing rat mGlu2 and GIRK, EC80 glutamate.
T1 construct: expressed in transfected cells; host or cells: HEK-293 cells stably co-expressing GIRK channels
Procedure: Human embryonic kidney (HEK-293) cell lines stably co-expressing human or rat mGlu2 and G protein-coupled inwardly rectifying potassium (GIRK) channels, or human mGlu3 and GIRK, were used for in vitro evaluation of compound activity in thallium flux assay using a fluorescent thallium indicator dye.
The day before the assay, GIRK cells co-expressing human mGlu3, human or rat mGlu2, as described above, were plated in black-walled, clear-bottomed, amine-coated 384-well plates at a density of 15,000 cells/20 μL/well in the assay medium (glutamine-depleted basal DMEM supplemented with 10% dialyzed FBS, 20 mM HEPES, 1 mM sodium pyruvate). Cells were incubated at 37° C. in the presence of 5% CO2. The next day, assay buffer (Hanks balanced salt solution, 20 mM HEPES, 4.16 mM sodium bicarbonate, pH 7.2) was prepared to dilute compounds and Thallos AM fluorescent dye solution. The 2× Thallos dye solution (final concentration 0.34 μM to the cells) was prepared by mixing the dye stock (2.97 mM in DMSO) to 1:1 with 10% pluronic acid before adding to the assay buffer. Cells were washed with assay buffer using a microplate washer to remove the medium, resulting in 20 μL of buffer remaining in each well. Immediately, 20 μL of 2× Thallos dye solution was added to cells, and incubated for one hour at 25° C. During the cell dye loading incubation period, a 10-point concentration serial dilution of compound was created from a 10 mM DMSO compound stock by performing a 1:3 serial dilution in DMSO using the Bravo liquid handler. The 2× compound plate was generated by transferring 0.24 μL of the diluted compound in each well to a daughter plate using an Echo acoustic liquid handler. This is further diluted in 40 μL assay buffer, resulting in a range from 30 μM to 1.5 nM final concentration in the assay. The agonist plate (5×) was prepared to include EC80 glutamate concentration (a concentration to elicit 80% of a maximally effective glutamate concentration) in thallium buffer (125 mM […], 1 mM magnesium sulfate, 1.8 mM calcium sulfate, 5 mM glucose, 10 mM HEPES, pH 7.2, 12.5 mM thallium sulfate).
After dye-loading, cell plates were washed with assay buffer to remove excess extracellular dye using a microplate washer, resulting in 20 μL of buffer remaining in each well. After a ten-minute equilibration period, cell, compound and agonist plates were loaded into a Hamamatsu μCell kinetic imaging plate reader equipped with liquid handler to monitor fluorescence changes at 480 nm excitation and 540 nm emission settings. Briefly, after collection of baseline fluorescence, 20 μL of compound was added and incubated for two minutes and twenty seconds. This is immediately followed by adding 10 μL of glutamate-thallium buffer to the wells containing compound. The fluorescent signal was monitored an additional 2.5 minutes after the glutamate addition. Multiple reference wells containing no compound received either no glutamate (for a baseline reference), EC80 glutamate, or ECmax glutamate (for normalization to maximum response). Fluorescence was measured throughout the experiment at a frequency of 1 measurement per every 2 seconds before the glutamate addition and a frequency of 1 measurement per every 1 second after the glutamate addition. Each compound concentration series occurred one time in each plate, and replicates from two or three plates were used in each experimental run. Thallium solutions were handled and disposed of according to guidelines from the Vanderbilt University Chemical Safety department.
Data were normalized using a static ratio function (F/F0) by dividing every fluorescent measurement by the initial fluorescent value for the corresponding well. The increase in signal resulting from the glutamate/thallium addition of the second add was measured by determining the slope from 3 seconds to 13 seconds after the addition. […]

T1 sequence (P31421 19-872): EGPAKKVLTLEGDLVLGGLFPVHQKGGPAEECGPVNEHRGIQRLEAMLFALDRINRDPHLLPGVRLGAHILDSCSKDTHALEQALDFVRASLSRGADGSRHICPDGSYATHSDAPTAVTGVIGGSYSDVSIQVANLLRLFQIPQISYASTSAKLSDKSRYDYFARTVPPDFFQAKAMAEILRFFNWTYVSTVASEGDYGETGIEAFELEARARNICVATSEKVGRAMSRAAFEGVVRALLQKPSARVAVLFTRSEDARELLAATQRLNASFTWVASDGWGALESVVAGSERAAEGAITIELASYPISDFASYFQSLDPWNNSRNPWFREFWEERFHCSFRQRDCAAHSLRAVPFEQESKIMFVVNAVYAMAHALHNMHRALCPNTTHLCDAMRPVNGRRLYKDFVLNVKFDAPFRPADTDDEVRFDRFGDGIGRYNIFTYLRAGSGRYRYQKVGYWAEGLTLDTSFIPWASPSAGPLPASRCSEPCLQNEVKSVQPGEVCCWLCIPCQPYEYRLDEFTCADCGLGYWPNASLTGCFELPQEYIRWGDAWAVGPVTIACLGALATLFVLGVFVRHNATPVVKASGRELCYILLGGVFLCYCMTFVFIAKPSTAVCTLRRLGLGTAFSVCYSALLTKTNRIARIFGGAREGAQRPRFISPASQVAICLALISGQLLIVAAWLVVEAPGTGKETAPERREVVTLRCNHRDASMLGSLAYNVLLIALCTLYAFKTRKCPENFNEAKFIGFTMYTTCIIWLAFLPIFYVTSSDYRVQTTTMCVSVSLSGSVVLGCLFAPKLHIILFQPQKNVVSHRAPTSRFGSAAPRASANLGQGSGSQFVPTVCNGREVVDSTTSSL

Row | SMILES | IC50 [µM]
1 | CC(C)(O)c1ccc(-c2cc3c(cc2-c2ccc(F)cc2)C(=O)NC3)cn1 [Compound 50, 6-(4-fluorophenyl)-5-(6-(2-hydroxypropan-2-yl)pyridin-3-yl)isoindolin-1-one] | > 10
2 | Cc1c(-c2cc3c(cc2-c2ccc(F)cc2)C(=O)NC3)cc(C#N)n1C [Compound 53, 4-(6-(4-fluorophenyl)-1-oxoisoindolin-5-yl)-1,5-dimethyl-1H-pyrrole-2-carbonitrile] | > 10
3 | O=C1NCc2cc(C3=CCN(Cc4ccccc4)CC3)c(-c3ccc(F)cc3)cc21 [Compound 56, 5-(1-benzyl-1,2,3,6-tetrahydropyridin-4-yl)-6-(4-fluorophenyl)isoindolin-1-one] | > 10
4 | CC1(C)C=C(c2cc3c(cc2-c2ccc(F)cc2)C(=O)NC3)CC(C)(C)N1 [Compound 59, 6-(4-fluorophenyl)-5-(2,2,6,6-tetramethyl-1,2,3,6-tetrahydropyridin-4-yl)isoindolin-1-one] | > 10
5 | CC1C=C(c2cc3c(cc2-c2ccc(F)cc2)C(=O)NC3)CC(C)N1 (stereo not drawn) [Compound 62, 5-(2,6-dimethyl-1,2,3,6-tetrahydropyridin-4-yl)-6-(4-fluorophenyl)isoindolin-1-one] | > 10
6 | O=C1NCc2cc(-c3ccc(C4CC4)nc3)c(-c3ccc(F)cc3F)cc21 [Compound 70, 5-(6-cyclopropylpyridin-3-yl)-6-(2,4-difluorophenyl)isoindolin-1-one] | 1.98
7 | CN(C)c1ncccc1-c1cc2c(cc1-c1ccc(F)cc1F)C(=O)NC2 [Compound 71, 6-(2,4-difluorophenyl)-5-(2-(dimethylamino)pyridin-3-yl)isoindolin-1-one] | 5.1
8 | O=C1NCc2cc(-c3cccnc3F)c(-c3ccc(F)cc3F)cc21 [Compound 72, 6-(2,4-difluorophenyl)-5-(2-fluoropyridin-3-yl)isoindolin-1-one] | 0.999
9 | Cc1ncccc1-c1cc2c(cc1-c1ccc(F)cc1F)C(=O)NC2 [Compound 73, 6-(2,4-difluorophenyl)-5-(2-methylpyridin-3-yl)isoindolin-1-one] | 4.41
10 | O=C1NCc2cc(-c3ccc(C(F)(F)F)nc3)c(-c3ccc(F)cc3F)cc21 [Compound 79, 6-(2,4-difluorophenyl)-5-(6-(trifluoromethyl)pyridin-3-yl)isoindolin-1-one] | 1.86
11 | Cn1ccc(-c2cc3c(cc2-c2ccc(F)cc2F)C(=O)NC3)n1 [Compound 80, 6-(2,4-difluorophenyl)-5-(1-methyl-1H-pyrazol-3-yl)isoindolin-1-one] | 1.09
12 | Cc1cc(F)ncc1-c1cc2c(cc1-c1ccc(F)cc1F)C(=O)NC2 [Compound 81, 6-(2,4-difluorophenyl)-5-(6-fluoro-4-methylpyridin-3-yl)isoindolin-1-one] | 1.14
13 | O=C1NCc2cc(-c3cnc(C(F)(F)F)nc3)c(-c3ccc(F)cc3F)cc21 [Compound 86, 6-(2,4-difluorophenyl)-5-(2-(trifluoromethyl)pyrimidin-5-yl)isoindolin-1-one] | > 10
14 | O=C1NCc2cc(-c3cccnc3)c(-c3ccc(F)cc3F)cc21 [Compound 88, 6-(2,4-difluorophenyl)-5-(pyridin-3-yl)isoindolin-1-one] | 1.65
15 | O=C1NCc2cc(-c3ccc4[nH]ccc4c3)c(-c3ccc(F)cc3F)cc21 [Compound 89, 6-(2,4-difluorophenyl)-5-(1H-indol-5-yl)isoindolin-1-one] | 0.925
16 | COc1ccc(-c2cc3c(cc2-c2ccc(F)cc2F)C(=O)NC3)cc1C#N [Compound 92, 5-(6-(2,4-difluorophenyl)-1-oxoisoindolin-5-yl)-2-methoxybenzonitrile] | 0.618
17 | N#Cc1cc(-c2cc3c(cc2-c2ccc(F)cc2F)C(=O)NC3)ccc1F [Compound 93, 5-(6-(2,4-difluorophenyl)-1-oxoisoindolin-5-yl)-2-fluorobenzonitrile] | 1.5

The remaining lines, values ahead:

Row | IC50 [µM] | SMILES
18 | > 10 | COC1CC=C(c2cc3c(cc2-c2ccc(F)cc2)C(=O)NC3)CC1 (stereo not drawn) [Compound 54, 6-(4-fluorophenyl)-5-(4-methoxycyclohex-1-en-1-yl)isoindolin-1-one]
19 | > 10 | O=C1NCc2cc(C3=CCOCC3)c(-c3ccc(F)cc3)cc21 [Compound 55, 5-(3,6-dihydro-2H-pyran-4-yl)-6-(4-fluorophenyl)isoindolin-1-one]
20 | > 10 | CN1CCC=C(c2cc3c(cc2-c2ccc(F)cc2)C(=O)NC3)C1 [Compound 57, 6-(4-fluorophenyl)-5-(1-methyl-1,2,5,6-tetrahydropyridin-3-yl)isoindolin-1-one]
21 | > 10 | CN1CC=C(c2cc3c(cc2-c2ccc(F)cc2)C(=O)NC3)CC1 [Compound 58, 6-(4-fluorophenyl)-5-(1-methyl-1,2,3,6-tetrahydropyridin-4-yl)isoindolin-1-one]
22 | > 10 | O=C1NCc2cc(C3=CCNCC3)c(-c3ccc(F)cc3)cc21 [Compound 60, 6-(4-fluorophenyl)-5-(1,2,3,6-tetrahydropyridin-4-yl)isoindolin-1-one]
23 | > 10 | O=C1NCc2cc(C3=CCCNC3)c(-c3ccc(F)cc3)cc21 [Compound 61, 6-(4-fluorophenyl)-5-(1,2,5,6-tetrahydropyridin-3-yl)isoindolin-1-one]
24 | 2.62 | O=C1NCc2cc(C3CCCCC3)c(-c3ccc(F)cc3)cc21 [Compound 63, 5-cyclohexyl-6-(4-fluorophenyl)isoindolin-1-one]
25 | > 10 | CN1CCCC(c2cc3c(cc2-c2ccc(F)cc2)C(=O)NC3)C1 (stereo not drawn) [Compound 65, 6-(4-fluorophenyl)-5-(1-methylpiperidin-3-yl)isoindolin-1-one]
26 | > 10 | CN1CCC(c2cc3c(cc2-c2ccc(F)cc2)C(=O)NC3)CC1 [Compound 66, 6-(4-fluorophenyl)-5-(1-methylpiperidin-4-yl)isoindolin-1-one]
27 | > 10 | O=C1NCc2cc(C3CCNCC3)c(-c3ccc(F)cc3)cc21 [Compound 67, 6-(4-fluorophenyl)-5-(piperidin-4-yl)isoindolin-1-one]
28 | > 10 | CC1CC(c2cc3c(cc2-c2ccc(F)cc2)C(=O)NC3)CC(C)N1 (stereo not drawn) [Compound 68, 5-(2,6-dimethylpiperidin-4-yl)-6-(4-fluorophenyl)isoindolin-1-one]
29 | > 10 | CC1(C)CC(c2cc3c(cc2-c2ccc(F)cc2)C(=O)NC3)CC(C)(C)N1 [Compound 75, 6-(4-fluorophenyl)-5-(2,2,6,6-tetramethylpiperidin-4-yl)isoindolin-1-one]
30 | > 10 | CC1(C)CNCC=C1c1cc2c(cc1-c1ccc(F)cc1)C(=O)NC2 [Compound 76, 5-(3,3-dimethyl-1,2,3,6-tetrahydropyridin-4-yl)-6-(4-fluorophenyl)isoindolin-1-one]
31 | > 10 | CC1CNCCC1c1cc2c(cc1-c1ccc(F)cc1)C(=O)NC2 (stereo not drawn) [Compound 77, 6-(4-fluorophenyl)-5-(3-methylpiperidin-4-yl)isoindolin-1-one]
32 | > 10 | O=C1NCc2cc(C3CCCNC3)c(-c3ccc(F)cc3)cc21 (stereo not drawn) [Compound 78, 6-(4-fluorophenyl)-5-(piperidin-3-yl)isoindolin-1-one]
33 | > 10 | O=C1NCc2cc(C3=CCNC3)c(-c3ccc(F)cc3)cc21 [Compound 82, 5-(2,5-dihydro-1H-pyrrol-3-yl)-6-(4-fluorophenyl)isoindolin-1-one]
34 | > 10 | O=C1NCc2cc(C3CCNC3)c(-c3ccc(F)cc3)cc21 (stereo not drawn) [Compound 83, 6-(4-fluorophenyl)-5-(pyrrolidin-3-yl)isoindolin-1-one]
35 | > 10 | CC1CC(c2cc3c(cc2-c2ccc(F)cc2)C(=O)NC3)=CCN1 (stereo not drawn) [Compound 84, 6-(4-fluorophenyl)-5-(2-methyl-1,2,3,6-tetrahydropyridin-4-yl)isoindolin-1-one]
36 | > 10 | CC1CC(c2cc3c(cc2-c2ccc(F)cc2)C(=O)NC3)CCN1 (stereo not drawn) [Compound 85, 6-(4-fluorophenyl)-5-(2-methylpiperidin-4-yl)isoindolin-1-one]
